# Legend:
# FGFR1 = biological target: T1, FGFR1 (Homo sapiens, UniProt P11362); test: Kinase binding assay (kinase-tagged T7 phage, affinity beads, qPCR), Kd; conditions: read-out: FGFR1 (Kd nM)
# T1 construct: made in house; host or cells: E. coli (BL21-derived), T7 phage
# Method in brief: (§1)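 Phage-tagged kinase capture on small-molecule affinity resin, compound competition, qPCR quantitation; Kd from Levenberg-Marquardt Hill fit.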
# FGFR2 = biological target: T2, FGFR2 (Homo sapiens, UniProt P21802); test: as above; conditions: read-out: FGFR2 (Kd nM)
# T2 construct: made in house; host or cells: E. coli (BL21-derived), T7 phage
# Method in brief: as §1
# FGFR3 = biological target: T3, FGFR3 (Homo sapiens, UniProt P22607); test: as above; conditions: read-out: FGFR3 (Kd nM)
# T3 construct: made in house; host or cells: E. coli (BL21-derived), T7 phage
# Method in brief: as §1
# FGFR3 (V555M) = biological target: T4, FGFR3 (V555M) (Homo sapiens, UniProt P22607, V555M); test: as above; conditions: V555M mutant; read-out: FGFR3 (V555M) (Kd nM)
# T4 construct: made in house; host or cells: E. coli (BL21-derived), T7 phage
# Method in brief: as §1
# FGFR4 = biological target: T5, FGFR4 (Homo sapiens, UniProt P22455); test: as above; conditions: read-out: FGFR4 (Kd nM)
# T5 construct: made in house; host or cells: E. coli (BL21-derived), T7 phage
# Method in brief: as §1
# [1] = system: KATO-III cell line (FGFR2 amplification); test: Cancer cell line cell viability assay (Cell Titer-Glo), 72 hr; assay type: cell-based; conditions: Homo sapiens, KATO III
# Method in brief: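 5,000-20,000 cells/well o/n; cpd 9-pt 4x dil from 3 μM, n=3; 37° C/5% CO2; CTG 2.0 lumi; % DMSO ctrl; 4PL IC50.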
# [2] = system: KG-1 cell line (FGFR 1-fusion); test: as above; assay type: cell-based; conditions: Homo sapiens, KG-1, KG-1 cell line (FGFR1-fusion)
# Method in brief: (§2)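 Cells seeded at 5,000-20,000/well, incubated overnight, then treated with a 9-dose, 4-fold dilution series from 3 μM in triplicate at 37° C, 5% CO2. Viability read by Cell Titer-Glo 2.0 luminescence as percent of DMSO control; IC50 from 4-parameter variable-slope sigmoidal fit.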
# [3] = system: RT112/84 cell line (FGFR3-fusion); test: as above; assay type: cell-based; conditions: Homo sapiens, RT112/84, RT112/84 cell line (FGFR3-fusion)
# Method in brief: as §2
# T5 sequence (P22455 22-802): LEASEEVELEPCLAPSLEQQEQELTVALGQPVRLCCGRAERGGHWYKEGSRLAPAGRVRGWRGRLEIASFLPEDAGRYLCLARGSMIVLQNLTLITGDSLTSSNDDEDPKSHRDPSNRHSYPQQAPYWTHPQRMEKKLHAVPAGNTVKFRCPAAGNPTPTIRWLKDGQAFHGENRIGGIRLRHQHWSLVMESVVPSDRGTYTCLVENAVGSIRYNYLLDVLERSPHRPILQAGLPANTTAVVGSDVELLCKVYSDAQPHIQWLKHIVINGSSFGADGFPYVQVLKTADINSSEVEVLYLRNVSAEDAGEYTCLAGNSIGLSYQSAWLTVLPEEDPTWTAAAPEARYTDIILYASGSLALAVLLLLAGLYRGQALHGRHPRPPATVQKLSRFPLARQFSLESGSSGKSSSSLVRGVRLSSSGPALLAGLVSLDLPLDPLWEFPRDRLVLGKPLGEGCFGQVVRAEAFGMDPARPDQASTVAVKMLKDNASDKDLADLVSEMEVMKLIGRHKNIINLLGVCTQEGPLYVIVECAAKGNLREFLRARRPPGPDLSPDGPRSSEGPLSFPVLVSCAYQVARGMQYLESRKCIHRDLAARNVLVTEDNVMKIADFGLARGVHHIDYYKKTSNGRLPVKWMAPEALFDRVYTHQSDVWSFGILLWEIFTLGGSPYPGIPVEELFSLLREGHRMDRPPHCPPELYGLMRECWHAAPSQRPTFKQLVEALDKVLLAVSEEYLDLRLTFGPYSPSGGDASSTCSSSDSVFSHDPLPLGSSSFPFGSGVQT
# T4 sequence (P22607 23-806 V555M): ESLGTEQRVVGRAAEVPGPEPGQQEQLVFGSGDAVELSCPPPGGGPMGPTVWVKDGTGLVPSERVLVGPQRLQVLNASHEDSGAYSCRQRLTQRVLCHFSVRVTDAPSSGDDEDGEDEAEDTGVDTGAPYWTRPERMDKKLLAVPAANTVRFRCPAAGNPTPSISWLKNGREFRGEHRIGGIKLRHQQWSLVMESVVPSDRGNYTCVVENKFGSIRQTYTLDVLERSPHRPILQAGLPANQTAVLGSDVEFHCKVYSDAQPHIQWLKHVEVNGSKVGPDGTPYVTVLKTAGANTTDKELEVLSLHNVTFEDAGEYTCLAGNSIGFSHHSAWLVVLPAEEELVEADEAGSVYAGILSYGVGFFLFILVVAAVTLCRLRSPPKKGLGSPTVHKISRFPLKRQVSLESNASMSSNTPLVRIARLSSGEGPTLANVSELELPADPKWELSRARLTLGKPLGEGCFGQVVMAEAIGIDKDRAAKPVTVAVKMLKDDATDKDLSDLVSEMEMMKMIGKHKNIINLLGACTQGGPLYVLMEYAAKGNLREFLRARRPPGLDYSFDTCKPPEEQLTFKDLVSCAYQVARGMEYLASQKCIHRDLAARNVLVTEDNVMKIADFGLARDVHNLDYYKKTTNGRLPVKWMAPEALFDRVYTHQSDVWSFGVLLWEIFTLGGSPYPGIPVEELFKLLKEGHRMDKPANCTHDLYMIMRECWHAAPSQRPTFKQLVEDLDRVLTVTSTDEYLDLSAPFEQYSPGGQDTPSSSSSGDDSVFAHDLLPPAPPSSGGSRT
# T1 sequence (P11362 22-822): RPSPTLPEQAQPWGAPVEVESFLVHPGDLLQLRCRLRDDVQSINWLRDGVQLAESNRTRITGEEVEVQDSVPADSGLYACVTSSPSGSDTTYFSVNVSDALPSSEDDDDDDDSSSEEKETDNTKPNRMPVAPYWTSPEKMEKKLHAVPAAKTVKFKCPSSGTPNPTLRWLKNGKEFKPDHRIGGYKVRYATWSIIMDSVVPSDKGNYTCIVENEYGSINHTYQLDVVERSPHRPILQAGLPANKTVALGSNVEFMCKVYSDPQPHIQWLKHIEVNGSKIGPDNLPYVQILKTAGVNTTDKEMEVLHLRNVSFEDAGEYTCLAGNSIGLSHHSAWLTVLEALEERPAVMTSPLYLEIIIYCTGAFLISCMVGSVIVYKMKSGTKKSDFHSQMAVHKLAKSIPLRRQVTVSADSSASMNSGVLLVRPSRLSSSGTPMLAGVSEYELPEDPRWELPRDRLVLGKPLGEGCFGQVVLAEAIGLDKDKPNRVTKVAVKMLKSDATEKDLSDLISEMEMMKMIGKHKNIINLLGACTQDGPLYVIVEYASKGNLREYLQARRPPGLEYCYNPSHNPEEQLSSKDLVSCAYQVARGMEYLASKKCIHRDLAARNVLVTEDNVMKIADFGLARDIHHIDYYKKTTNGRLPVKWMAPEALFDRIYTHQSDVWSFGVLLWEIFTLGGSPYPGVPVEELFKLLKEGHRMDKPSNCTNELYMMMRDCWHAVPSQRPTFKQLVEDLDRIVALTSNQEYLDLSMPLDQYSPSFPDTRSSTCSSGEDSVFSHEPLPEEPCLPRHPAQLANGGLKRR
# T2 sequence (P21802 22-821): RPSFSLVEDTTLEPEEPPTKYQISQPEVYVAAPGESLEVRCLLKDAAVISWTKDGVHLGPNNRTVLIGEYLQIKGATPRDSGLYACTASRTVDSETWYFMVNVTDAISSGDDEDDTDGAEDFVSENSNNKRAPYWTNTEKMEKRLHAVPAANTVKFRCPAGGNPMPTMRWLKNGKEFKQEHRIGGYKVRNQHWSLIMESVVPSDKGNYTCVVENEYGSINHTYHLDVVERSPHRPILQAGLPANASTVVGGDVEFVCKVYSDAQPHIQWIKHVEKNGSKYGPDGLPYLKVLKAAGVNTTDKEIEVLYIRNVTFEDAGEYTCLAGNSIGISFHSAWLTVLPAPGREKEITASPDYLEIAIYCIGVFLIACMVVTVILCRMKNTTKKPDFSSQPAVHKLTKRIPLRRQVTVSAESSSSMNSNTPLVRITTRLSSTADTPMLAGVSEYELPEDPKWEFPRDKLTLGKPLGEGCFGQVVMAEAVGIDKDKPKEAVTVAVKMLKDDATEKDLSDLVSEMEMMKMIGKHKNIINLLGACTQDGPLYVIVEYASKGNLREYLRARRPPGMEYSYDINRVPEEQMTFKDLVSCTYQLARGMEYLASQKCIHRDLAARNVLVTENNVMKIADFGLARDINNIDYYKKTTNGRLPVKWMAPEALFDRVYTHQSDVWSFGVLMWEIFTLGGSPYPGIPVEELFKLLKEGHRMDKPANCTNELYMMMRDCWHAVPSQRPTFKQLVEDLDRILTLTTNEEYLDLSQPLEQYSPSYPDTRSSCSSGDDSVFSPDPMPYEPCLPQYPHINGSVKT
# T3 sequence (P22607 23-806): as the sequence (P22607 23-806 V555M) above, with M533V counted along it
SMILES,Kd (FGFR1) [nM],Kd (FGFR2) [nM],Kd (FGFR3) [nM],Kd (FGFR3 (V555M)) [nM],Kd (FGFR4) [nM],IC50 [1] [nM],IC50 [2] [nM],IC50 [3] [nM]
"C[C@@H](Oc1ccc2[nH]nc(-c3ccc(N4CC(C)(N5CCC5)C4)nc3)c2c1)c1c(Cl)cncc1Cl [Example 116, 3-[6-[3-(azetidin-1-yl)-3-methyl-azetidin-1-yl]-3-pyridyl]-5-[(1R)-1-(3,5-dichloro-4-pyridyl)ethoxy]-1H-indazole]",1 to 50,1 to 50,1 to 50,1 to 50,1 to 50,0.1 to 50,0.1 to 50,0.1 to 50
"C[C@@H](Oc1ccc2[nH]nc(-c3ccc(N4CC(C)(NC(=O)CN(C)C)C4)nc3)c2c1)c1c(Cl)cncc1Cl [Example 95, (R)-N-(1-(5-(5-(1-(3,5-dichloropyridin-4-yl)ethoxy)-1H-indazol-3-yl)pyridin-2-yl)-3-methylazetidin-3-yl)-2-(dimethylamino)acetamide]",1 to 50,1 to 50,1 to 50,1 to 50,1 to 50,0.1 to 50,0.1 to 50,0.1 to 50
"C[C@@H](Oc1cc2c(-c3cnc(N4CC5(CC5)C4)nc3)n[nH]c2cc1F)c1c(Cl)cncc1Cl [Example 60, 3-[2-(5-azaspiro[2.3]hexan-5-yl)pyrimidin-5-yl]-5-[(1R)-1-(3,5-dichloro-4-pyridyl)ethoxy]-6-fluoro-1H-indazole]",50 to 300,300 to 1000,1 to 50,1 to 50,1 to 50,> 1000,> 1000,50 to 200
"CC(C)NCC1(C)CN(c2ncc(-c3n[nH]c4ccc(O[C@H](C)c5c(Cl)cncc5Cl)cc34)cc2F)C1 [Example 108, (R)-N-((1-(5-(5-(1-(3,5-dichloropyridin-4-yl)ethoxy)-1H-indazol-3-yl)-3-fluoropyridin-2-yl)-3-methylazetidin-3-yl)methyl)propan-2-amine]",1 to 50,1 to 50,1 to 50,1 to 50,1 to 50,0.1 to 50,0.1 to 50,0.1 to 50
"C[C@H]1CN(C2(C)CN(c3ncc(-c4n[nH]c5ccc(O[C@H](C)c6c(Cl)cncc6Cl)cc45)cc3F)C2)CCO1 [Example 216, (S)-4-(1-(5-(5-((R)-1-(3,5-dichloropyridin-4-yl)ethoxy)-1H-indazol-3-yl)-3-fluoropyridin-2-yl)-3-methylazetidin-3-yl)-2-methylmorpholine]",1 to 50,1 to 50,1 to 50,1 to 50,1 to 50,50 to 200,50 to 200,0.1 to 50
"C[C@@H]1CN(C2(C)CN(c3ncc(-c4n[nH]c5ccc(O[C@H](C)c6c(Cl)cncc6Cl)cc45)cc3F)C2)CCO1 [Example 213, (R)-4-(1-(5-(5-((R)-1-(3,5-dichloropyridin-4-yl)ethoxy)-1H-indazol-3-yl)-3-fluoropyridin-2-yl)-3-methylazetidin-3-yl)-2-methylmorpholine]",1 to 50,1 to 50,1 to 50,1 to 50,1 to 50,50 to 200,200 to 1000,0.1 to 50
"C[C@@H](Oc1ccc2[nH]nc(-c3cnc(N4CC(C)(CN5CCCC5)C4)c(F)c3)c2c1)c1c(Cl)cncc1Cl [Example 110, (R)-5-(1-(3,5-dichloropyridin-4-yl)ethoxy)-3-(5-fluoro-6-(3-methyl-3-(pyrrolidin-1-ylmethyl)azetidin-1-yl)pyridin-3-yl)-1H-indazole]",1 to 50,1 to 50,1 to 50,1 to 50,1 to 50,0.1 to 50,0.1 to 50,0.1 to 50
"C[C@@H](Oc1ccc2[nH]nc(-c3cnc(N4CC(C)(N5C[C@H]6C[C@@H]5CO6)C4)c(F)c3)c2c1)c1c(Cl)cncc1Cl [Example 223, (1R,4R)-5-(1-(5-(5-((R)-1-(3,5-dichloropyridin-4-yl)ethoxy)-1H-indazol-3-yl)-3-fluoropyridin-2-yl)-3-methylazetidin-3-yl)-2-oxa-5-aza-bicyclo[2.2.1]hep-tane]",1 to 50,1 to 50,1 to 50,1 to 50,1 to 50,0.1 to 50,50 to 200,0.1 to 50

# Source: patent US20250368666A1, “INDAZOLE COMPOUNDS” (TYRA BIOSCIENCES, INC., priority 2022, published 2025)
